Test system: CD1 female mouse brain lipidome
Assay: Brain-region lipid levels (HPLC/MS/MS lipidomics) 2 h after single i.p. 3 mg/kg CP 55,940 vs vehicle
Format: in vivo
Design: N-arachidonoyl phenylalanine level, Mean / N-stearoyl tryptophan level, Mean / N-stearoyl proline level, Mean / N-stearoyl leucine level, Mean / N-stearoyl phenylalanine level, Mean / N-stearoyl serine level, Mean / N-stearoyl methionine level, Mean: unit: moles per gram
Experimental: The Bloomington Institutional Animal Care and Use Committee of Indiana University reviewed and approved the animal procedures. Female mice from the CD1 strain were utilized to match our study examining THC’s effects on the brain lipidome ([Leishman et al., 2018]). Mice were given a single i.p. injection of either 3 mg/kg CP or 1:1:18 cremophor:ethanol:saline vehicle (please refer to the section “3 mg/kg CP Is Relevant for Synthetic Cannabinoid Abuse and Has Stronger Effects on the Female Mouse Brain Lipidome During Adolescence” for a justification of dose and use of female mice). Three different age groups were given injections: PND 35 and PND 50 adolescents, and adult mice (PND 113). At least eight mice in each age group received CP and at least eight received vehicle. Matching the THC study time course ([Leishman et al., 2018]), mice were sacrificed via rapid decapitation 2 h after injection. Brains were immediately removed and flash-frozen in liquid nitrogen, and then stored at -80°C until dissections were performed. Brains were dissected on an ice-cold dissection plate into the following regions: STR, HIPP, CER, THAL, CTX, HYP, MID, and STEM. These abbreviations for these brain areas will be used exclusively when discussing the results generated by these specific dissections. Each dissected area was immediately placed in liquid nitrogen and then stored at -80°C until used for lipid extraction.
Tissue extracts were performed as previously described ([Bradshaw et al., 2006]; [Stuart et al., 2013]; [Raboune et al., 2014]; [Leishman et al., 2016a],[b], [2017], [2018]). First, samples were shock frozen in liquid nitrogen, weighed, and transferred to a centrifuge tube. The mass of the largest sample was multiplied by 50 to determine how many milliliters of HPLC-grade methanol (Fisher, Fair Lawn, NJ, United States) to add. Then, samples were spiked with 500 pmol deuterium-labeled NAGly (d8NAGly; Cayman Chemical, Ann Arbor, MI, United States). Samples were placed on ice in darkness for 2 h then individually homogenized and centrifuged at 19,000 × g for 20 min at 20°C. Supernatants were diluted with HPLC water (purified in house) to make a solution of 75% water, 25% supernatant. Lipids were partially purified on C18 solid phase extraction columns (Agilent, Palo Alto, CA, United States). A series of four elutions with 1.5 mL of 60%, 75%, 85%, and 100% methanol were collected ([Stuart et al., 2013]; [Leishman et al., 2016a],[b], [2018]).
As previously described ([Bradshaw et al., 2006]; [Tan et al., 2006]; [Smoum et al., 2010]; [Stuart et al., 2013]; [Tortoriello et al., 2013]; [Raboune et al., 2014]; [Leishman et al., 2016a],[b], [2017], [2018]), samples were analyzed using an Applied Biosystems API 3000 triple quadrupole mass spectrometer with electrospray ionization (Foster City, CA, United States). Using an Agilent XDB-C18 reversed phase analytical column and optimized mobile phase gradients, 20 μL from each elution were chromatographed. Two Shimadzu 10ADvp pumps (Columbia, MD, United States) provided the pressure for gradient elution. Mobile phase A: 20% methanol, 80% water (v/v) and 1 mM ammonium acetate (Sigma, St. Louis, MO, United States). Mobile phase B: 100% methanol, 1 mM ammonium acetate. Every method run began with 0% mobile phase B, reached 100% mobile phase B flowing at 0.2 mL/min, and gradually returned to 0% mobile phase B.
This screening library will be referred to as the lipidome when discussing data from this study. HPLC/MS/MS data were analyzed using Analyst software (Applied Biosystems) ([Bradshaw et al., 2006]; [Tan et al., 2006]; [Stuart et al., 2013]; [Tortoriello et al., 2013]; [Raboune et al., 2014]; [Leishman et al., 2016a],[b], [2017], [2018]). Chromatograms (Supplementary Figure 3) were generated by determining the retention time of analytes from the analytical column with a [M-1] or [M+1] parent peak and a fragmentation peak corresponding to the programmed values. […]

[1] = adult female mice, brainstem, 3mg/kg CP 55,940
[2] = adult hypothalamus, 3 mg/kg CP 55,940

Structure (SMILES): CCCCCCC(C)(C)c1ccc([C@@H]2C[C@H](O)CC[C@H]2CCCO)c(O)c1 [CP 55,940]
- 6-ketoPGF1α level, Mean [1]: 2.07E-11
- Arachidonic acid level, Mean [1]: 4.08E-10
- Linoleic acid level, Mean [1]: 4.56E-10
- N- stearoyl valine level, Mean [1]: 2.21E-14
- N-arachidonoyl proline level, Mean [1]: BDL
- N-arachidonoyl serine level, Mean [1]: PISSR
- N-arachidonoyl taurine level, Mean [1]: 2.62E-11
- N-arachidonoyl tryptophan level, Mean [1]: BDL
- N-arachidonoyl tyrosine level, Mean [1]: 6.33E-13
- N-docosahexaenoyl proline level, Mean [1]: BDL
- N-docosahexaenoyl serine level, Mean [1]: PISSR
- N-docosahexaenoyl tryptophan level, Mean [1]: BDL
- N-docosahexaenoyl tyrosine level, Mean [1]: 5.03E-13
- N-docosahexaenoyl valine level, Mean [1]: BDL
- N-linoleoyl proline level, Mean [1]: BDL
- N-linoleoyl serine level, Mean [1]: 1.98E-11
- N-linoleoyl tryptophan level, Mean [1]: BDL
- N-linoleoyl tyrosine level, Mean [1]: PISSR
- N-linoleoyl valine level, Mean [1]: PISSR
- N-nervonoyl valine level, Mean [1]: BDL
- N-oleoyl proline level, Mean [1]: BDL
- N-oleoyl serine level, Mean [1]: 1.03E-10
- N-oleoyl tryptophan level, Mean [1]: BDL
- N-oleoyl tyrosine level, Mean [1]: 5.06E-13
- N-oleoyl valine level, Mean [1]: 1.48E-14
- N-palmitoyl proline level, Mean [1]: BDL
- N-palmitoyl serine level, Mean [1]: 1.08E-11
- N-palmitoyl tryptophan level, Mean [1]: BDL
- N-palmitoyl tyrosine level, Mean [1]: 7.4E-13
- N-palmitoyl valine level, Mean [1]: 1.28E-13
- N-stearoyl proline level, Mean [1]: BDL
- N-stearoyl serine level, Mean [1]: 1.31E-11
- N-stearoyl tryptophan level, Mean [1]: BDL
- Oleic acid level, Mean [1]: 4.28E-10
- PGE2 level, Mean [1]: 1.64E-10
- PhosphoLEA level, Mean [1]: 2.15E-12
- 2-arachidonoyl glycerol level, Mean [2]: 2.11E-09
- 2-linoleoyl glycerol level, Mean [2]: 1.7E-10
- 2-oleoyl glycerol level, Mean [2]: 1.71E-09
- 2-palmitoyl glycerol level, Mean [2]: 1.78E-10
- 6-ketoPGF1α level, Mean [2]: 2.15E-11
- 11-OH-THC level, Mean [2]: BDL
- 11-nor-9-carboxyTHC level, Mean [2]: BDL
- Arachidonic acid level, Mean [2]: 6.14E-10
- Cannabidiol level, Mean [2]: BDL
- Linoleic acid level, Mean [2]: 1.2E-10
- N-arachidonoyl GABA level, Mean [2]: 2.05E-11
- N-arachidonoyl dopamine level, Mean [2]: BDL
- N-arachidonoyl ethanolamine level, Mean [2]: 6.61E-12
- N-arachidonoyl glycine level, Mean [2]: 2.96E-13
- N-arachidonoyl methionine level, Mean [2]: BDL
- N-arachidonoyl phenylalanine level, Mean [2]: 1.34E-13
- N-arachidonoyl proline level, Mean [2]: BDL
- N-arachidonoyl serine level, Mean [2]: BDL
- N-arachidonoyl taurine level, Mean [2]: 1.91E-11
- N-arachidonoyl tryptophan level, Mean [2]: BDL
- N-docosahexaenoyl ethanolamine level, Mean [2]: 1.18E-11
- N-docosahexaenoyl methionine level, Mean [2]: BDL
- N-docosahexaenoyl proline level, Mean [2]: BDL
- N-docosahexaenoyl tryptophan level, Mean [2]: BDL
- N-docosahexaenoyl valine level, Mean [2]: BDL
- N-linoleoyl GABA level, Mean [2]: BDL
- N-linoleoyl ethanolamine level, Mean [2]: 6.58E-12
- N-linoleoyl methionine level, Mean [2]: BDL
- N-linoleoyl proline level, Mean [2]: BDL
- N-linoleoyl serine level, Mean [2]: 1.16E-10
- N-linoleoyl tryptophan level, Mean [2]: BDL
- N-linoleoyl tyrosine level, Mean [2]: BDL
- N-linoleoyl valine level, Mean [2]: BDL
- N-nervonoyl valine level, Mean [2]: BDL
- N-oleoyl alanine level, Mean [2]: 4.79E-12
- N-oleoyl dopamine level, Mean [2]: BDL
- N-oleoyl ethanolamine level, Mean [2]: 7.29E-11
- N-oleoyl glycine level, Mean [2]: 2.66E-13
- N-oleoyl methionine level, Mean [2]: BDL
- N-oleoyl phenylalanine level, Mean [2]: 5E-13
- N-oleoyl proline level, Mean [2]: BDL
- N-oleoyl serine level, Mean [2]: 5.82E-10
- N-oleoyl tryptophan level, Mean [2]: BDL
- N-palmitoyl GABA level, Mean [2]: 3.12E-11
- N-palmitoyl alanine level, Mean [2]: 2.7E-12
- N-palmitoyl ethanolamine level, Mean [2]: 2.56E-11
- N-palmitoyl glycine level, Mean [2]: 2.34E-12
- N-palmitoyl leucine level, Mean [2]: 1.88E-12
- N-palmitoyl methionine level, Mean [2]: BDL
- N-palmitoyl phenylalanine level, Mean [2]: 3.42E-13
- N-palmitoyl proline level, Mean [2]: BDL
- N-palmitoyl tryptophan level, Mean [2]: BDL
- N-palmitoyl tyrosine level, Mean [2]: 1.11E-12
- N-palmitoyl valine level, Mean [2]: 1.56E-13
- N-stearoyl alanine level, Mean [2]: 2.77E-12
- N-stearoyl ethanolamine level, Mean [2]: 7.07E-12
- N-stearoyl glycine level, Mean [2]: 2.2E-12
- N-stearoyl leucine level, Mean [2]: 1.65E-12
- N-stearoyl methionine level, Mean [2]: BDL
- N-stearoyl phenylalanine level, Mean [2]: 2.86E-13
- N-stearoyl proline level, Mean [2]: BDL
- N-stearoyl serine level, Mean [2]: 4.88E-11
- N-stearoyl tryptophan level, Mean [2]: BDL
- Oleic acid level, Mean [2]: 2.14E-10
- PGE2 level, Mean [2]: 2.25E-10
- PhosphoLEA level, Mean [2]: 5.73E-11

From article PMC6277767, “Broad and Region-Specific Impacts of the Synthetic Cannabinoid CP 55,940 in Adolescent and Adult Female Mouse Brains” (Frontiers in Molecular Neuroscience, 2018)
